Assay results published in US7022720B2, “Synthetic diazonamides as novel anti-mitotic agents” (Board of Regents, The University of Texas System, priority 2001, dated 2006).
Read-outs that look alike come from different tables or passages of the source.

Columns and labels:
HCT-116 cells [1] = assay type: cell-based, human; conditions: 30 nM, 12-48 hours, FIG. 14
Method: FACS Analysis was performed on HCT-116 cells to examine the effect of JL-9 on mitosis. 150,000 HCT-116 cells were incubated per well with media into six well tissue culture plates. Cells were allowed to adhere for 16–18 hours. Media containing 0.01% ethanol (vehicle control), 30 nanomolar (nM) taxol, 30 nM vinblastine and 30 nM JL-9 was added to cells and incubated for 12, 24, 36, or 48 hours. At these time points, cells were harvested with 0.25% trypsin 1 mM EDTA, and transferred to 1.5 ml Eppendorf tubes. Cells were pelleted and washed twice with 1×PBS. Cells were then fixed in −20° C. 100% ethanol and stored at 4° C. Cells were pelleted from 100% ethanol, washed once with 1×PBS, and treated with Vindelov's propidium iodide solution (50 ug/ml propidium iodide, 0.01 mM NaCl, 0.1% IPEGAL, 0.01 mg RNase) and 1 mg/ml RNAse for 30 minutes at 37° C. Propidium iodide is a fluorescent marker that binds to nucleotides. It can be used with FACS scan analysis to determine the ploidy of a population of cells. FACS scan analysis was performed using […] FACScan instrument. Data was analyzed using Cell Quest software.

BSC-1 cells = experiment: Immunofluorescence of alpha tubulin in BSC-1 cells after thymidine block; assay type: cell-based, African Green Monkey; conditions: BSC-1, 100 nM, 12 hours after thymidine block, FIG. 16
Method: Immunofluorescence was also performed on JL-9, JL-10, taxol and vinblastine-treated BSC-1 cells subjected to thymidine block. BCS-1 African Green Monkey kidney cells were treated for 18 hours in culture medium containing 2 mM thymidine and then returned to normal medium containing 100 nM of taxol, vinblastine, JL-10 (control) or JL-9 for 12 hours. During the last 30 minutes, Hoecht's dye was added to 100 nM to stain chromosomes. Cells were fixed in cold methanol and stained with antibody specific for alpha tubulin. Images of the organization of microtubules in spindles were collected with a laser scanning confocal microscope using a single 488 nm excitation wavelength.

OVCAR-3 cells [2] = experiment: In vitro cytotoxicity assay (Promega CellTiter-Glo) in OVCAR-3; assay type: cell-based, human
Method: A growth inhibition study was also conducted using OVCAR-3 (a human ovarian adenocarcinoma) cells. Human ovarian adenocarcinoma OVCAR-3 cells are treated with diazonamide and control compounds for 48 hours and evaluated for cell viability using the Promega CellTiter-Glo™ Assay (Promega, Madison, Wis.). This assay uses luciferase to measure ATP as indicator of metabolically active cells.

SK-MEL-5 cells = experiment: MTT assay in SK-MEL-5; assay type: cell-based, human; conditions: SK-MEL-5, MTT, FIG. 13
Description: This assay measures cellular viability and proliferation based on the ability of live cells to take up and cleave a tetrazolium salt to generate a colored product.

HCT-116 cells [3] = conditions: HCT-116 human colorectal carcinoma line; cited from earlier work
OVCAR-3 cells [4] = experiment: Indirect immunofluorescence of tubulin cytoskeleton in OVCAR-3; assay type: cell-based, human; conditions: OVCAR-3, 12 or 23 hours, FIGS. 15D and 15E
Method: Immunofluorescence was performed on JL-9, taxol, vinblastine, control-treated OVCAR-3 cells to examine their effects on tubulin cytoskeleton. Cells were grown on 2 cm glass cover slips in tissue culture wells. Media containing JL-9, vinblastine, or taxol was added at various concentrations and incubated for 12 or 23 hours. Hoescht […] nuclear dye was added directly to the media (1.5 ug/ml) and incubated at 37° C. for 30 minutes. Coverslips were washed 3× with 1×PBS and fixed for 10 minutes with −20C 100% methanol. Coverslips were washed 3× with 1×PBS/1% BSA and treated directly with a 1/2000 dilution of anti-α-tubulin antibody (mouse anti-human). Coverslips were washed 3× with 1×PBS/1% BSA and treated with 1/500 dilution of fluorescently conjugated goat anti-mouse secondary antibody (Alexa Fluor 488). Coverslips were washed 3× with 1×PBS/1% BSA and mounted on microscope slides using mounting media (Aqua Poly Mount). Images were obtained using Zeiss Axiovert 100M digital light and confocal microscopy.

[5] = Comparison of synthesized compound with natural diazonamide (handling stability); assay type: physicochemical
Description: Characteristics of synthesized diazonamide compound, JL-9, were compared to naturally occurring diazonamide. […] The process completes upon attempted preparative HPLC purification of 1b (FIG. 1) under conditions identical to those used to isolate natural (−)-diazonamide A. In addition, a second degradation pathway available in this series appears as a result of the cleavage of the strained macrolactam ring through diketopiperazine formation that involves the C37 amine and the C12 amide carbonyl.

Compound: CC(=O)O[C@H]1C(=O)[C@@]2(C)[C@H]([C@H](OC(=O)c3ccccc3)[C@]3(O)C[C@H](OC(=O)[C@H](O)[C@@H](NC(=O)c4ccccc4)c4ccccc4)C(C)=C1C3(C)C)[C@]1(OC(C)=O)CO[C@@H]1C[C@@H]2O [paclitaxel, reference compound]
- cell cycle arrest (ploidy) (HCT-116 cells [1]): arrests HCT-116 cells in the tetraploid (4n) state
- mitotic figures / spindle organization (BSC-1 cells): Mitotic figures were frequently found
- GI50 (OVCAR-3 cells [2]; Homo sapiens, OVCAR-3, 48 hours, CellTiter-Glo, read-out: GI50): 8 nM

Compound: CC(C)[C@H](N)C(=O)N[C@H]1Cc2ccc3c(c2)C24C5=C(N=C(O5)[C@H](C(C)C)NC1=O)c1nc(Cl)c(o1)-c1c(Cl)[nH]c5cccc(c15)-c1cccc2c1OC4O3 (stereo partly drawn) [JL-10]
- cytotoxic and growth inhibitory effect (SK-MEL-5 cells): inactive analogue
- mitotic figures / spindle organization (BSC-1 cells): resembled the vehicle controls
- GI50 (OVCAR-3 cells [2]; Homo sapiens, OVCAR-3, 48 h): 845 nM

Compound: CC(C)[C@H](O)C(=O)N[C@H]1Cc2ccc3c(c2)[C@]24C5=C(N=C(O5)[C@H](C(C)C)NC1=O)c1nc(Cl)c(o1)-c1c(Cl)[nH]c5cccc(c15)-c1cccc2c1N[C@@H]4O3 [natural diazonamide, diazonamide A, reference compound]
- GI50 (50% growth inhibitory concentration) (HCT-116 cells [3]): less than 15 ng/ml
- GI50 (OVCAR-3 cells [2]; OVCAR-3, 48 hours, CellTiter-Glo, read-out: GI50): 8 nM

Compound: CC[C@]1(O)C[C@@H]2CN(CCc3c([nH]c4ccccc34)[C@@](C(=O)OC)(c3cc4c(cc3OC)N(C)[C@H]3[C@@](O)(C(=O)OC)[C@H](OC(C)=O)[C@]5(CC)C=CCN6CC[C@]43[C@@H]65)C2)C1 [vinblastine, reference compound]
- cell cycle arrest (ploidy) (HCT-116 cells [1]): arrests HCT-116 cells in the tetraploid (4n) state
- mitotic figures / spindle organization (BSC-1 cells): Mitotic figures were frequently found

Compound: CC(C)[C@H](O)C(=O)N[C@H]1Cc2ccc3c(c2)C24C5=C(N=C(O5)[C@H](C(C)C)NC1=O)c1nc(Cl)c(o1)-c1c(Cl)[nH]c5cccc(c15)-c1cccc2c1OC4O3 (stereo partly drawn) [JL-9]
- effect on tubulin cytoskeleton (OVCAR-3 cells [4]): aberrant effects on the cytoskeleton and formation of abnormal mitotic spindles
- stability on handling [5]: susceptible to handling
- cytotoxic and growth inhibitory effect (SK-MEL-5 cells): potent cytotoxic and growth inhibitory effect
- cell cycle arrest (ploidy) (HCT-116 cells [1]): arrests HCT-116 cells in the tetraploid (4n) state
- mitotic figures / spindle organization (BSC-1 cells): Mitotic figures were frequently found
- GI50 (OVCAR-3 cells [2]; Homo sapiens, OVCAR-3, 48 h): 16 nM
- fold more potent than JL-10 at inhibiting growth (OVCAR-3 cells [2]; OVCAR-3 in vitro): > 50 fold
- potency relative to natural diazonamide A and paclitaxel (OVCAR-3 cells [2]; OVCAR-3 in vitro): equipotent to natural diazonamide A and paclitaxel
